Test results published in patent US20210330731A1, “TOPICAL SALVE FORMULATIONS FOR DERMAL ALKALOID DELIVERY” (priority 2020, published 2021).

Experiment: Topical application of alkaloid-containing analgesic salve formulations, observed pain relief
Type: in vivo, patients
Settings: for notable effect of secondary ingredient added to formulation: secondary ingredient in topical formulation
Description: In most embodiments, three-cup batches of oil and wax (e.g.; 2¼ cup oil, ¾ cup wax or other hardening agent) were infused with an extract produced from at least two ounces of plant matter processed using the above method. In a preferred embodiment, an extract produced from around 4.5 to 6 ounces of herbal material yielded the best results as far as optimal pain relief for the amount of product used.
In one embodiment, a formulation for a kratom alkaloid-based topical product involves extracting alkaloids from kratom powder into a food-grade oil (such as coconut oil) at 160° F. The powder may be combined with a lecithin (such as a sunflower lecithin) to aid in extraction.
In a further embodiment, a formulation involves extracting alkaloids from kratom powder into a food-grade oil at 160° F. for two hours and adding one or more carrier oils. The carrier oils comprise black pepper oil, turmeric oil, peppermint oil and lemon oil. A hardening agent, such as beeswax, may also be added. Piperine (a black pepper alkaloid), curcumin (a metabolite of turmeric), peppermint oil, and lemon oil are intended as dermal carriers and absorption enhancers. Piperine is known to increase curcumin bioavailability.
In a further embodiment, a severe pain relief formulation involves extracting alkaloids from kratom powder into a food-grade oil at 160° F. for two hours and adding one or more carrier oils. The carrier oils comprise black pepper oil, turmeric oil, peppermint oil (alternately, eucalyptus or naioli oils will suffice since they contain similar compounds), lemon oil, magnesium oil, St John's Wort oil, arnica oil, parsley oil, cinnamon oil, lemongrass oil, ginger oil, arnica oil (comprises helenalin, fatty acids (inolenic, palmitic, linoleic, and myristic) thymol, ethers of thymol, thymohydroquinone dimethyl ether, and phlorol isobutyrate (2%)), Ylang Ylang (Cananga odorata) oil (comprises linalool, caryophyllene and germacrene), and/or Black Seed oil (comprises anethole, p-cymene, limonene, carvone and thymoquinone). […] FIG. 2 provides a table 200 listing primary herbal extract sources 210 and secondary ingredients 220, including but not limited to dermal absorption enhancers 222, alkaloid potentiators 224, neuropathic relief agents 226, and anti-inflammation agents 228.
In yet another embodiment, a severe pain and inflammation relief formulation involves extracting alkaloids from kratom powder into a food-grade oil at 160° F. for two hours and adding one or more carrier oils. The carrier oils comprise black pepper oil, turmeric oil, peppermint oil, lemon oil, magnesium oil, St. John's Wort oil, arnica oil, and ginger oil. The kratom powder may be a combination of concentrated kratom extract and kratom powder. […]

Compound | increase of the effect of a formulation (duration) (added to the formulation as alkaloid potentiator) | notable effect of secondary ingredient added to formulation
Oc1ccc(/C=C/c2cc(O)cc(O)c2)cc1 [Trans-resveratrol] | approximately two hours or longer | 
O=c1c(O)c(-c2ccc(O)c(O)c2)oc2cc(O)cc(O)c12 [quercetin] |  | decreased pain and inflammation
copper salicylate |  | minor improvement to pain relief
magnesium stearate |  | relieved muscle spasms
